In US11000033B2, “Ketone or oxime compound, and herbicide” (NISSAN CHEMICAL CORPORATION, priority 2014, dated 2021):

What was measured:
Assay type in all cases: in vivo
Digitaria ciliaris = test: Test Example 5: herbicidal effect by foliage application, plastic box (symbol F); conditions: 320 g/ha, 3 weeks after application
Method in brief: (§1)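 Visual herbicidal score, taken three weeks post-application, of seedlings sprayed on the foliage with water-diluted emulsion at a predetermined amount; plants were 14 days old, greenhouse-raised at 25° C. to 30° C.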

Scirpus juncoides = test: Test Example 1: herbicidal activity, application before weed generation in submerged conditions (symbol B); conditions: application herbicide amount 320 g/ha
Method in brief: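 0–5 visual score, 3 wk post-application. Submerged pots, alluvial soil, water 4 cm; seeds sown mixed, rice at 2.5 leaves transplanted. Emulsion diluted to predetermined dose, applied to water surface at sowing. 25–30 °C greenhouse.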

Alopecurus myosuroides [1] = test: Test Example 4: herbicidal effect by soil treatment (symbol J); conditions: 320 g/ha
Method in brief: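 Seeds were sown in sterilized diluvial soil, covered with about 1.5 cm of soil, and the soil surface was sprayed with a water-diluted emulsion of the compound at a predetermined rate. Plants grew in a greenhouse at 25° C. to 30° C.; effects were scored visually 3 weeks after application.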

[2] = tested on: Echinochloa crus-galli var. crus-galli; test: Test Example 5: herbicidal effect by foliage application, plastic box (symbol H); conditions: 320 g/ha, 3 weeks after application
Method in brief: as §1

rapeseed = test: Test Example 5: effect on crop by foliage application, plastic box (symbol g); conditions: 320 g/ha, 3 weeks after application
Method in brief: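 Seeds were sown in spots in sterilized diluvial soil held in a plastic box 21 cm × 13 cm × 7 cm deep, covered with about 1.5 cm of soil, and grown in a greenhouse at 25° C. to 30° C.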

Chenopodium album = test: Test Example 5: herbicidal effect by foliage application, plastic box (symbol O); conditions: 320 g/ha, 3 weeks after application
Method in brief: as §1

Alopecurus myosuroides [3] = test: Test Example 5: herbicidal effect by foliage application, plastic box (symbol J); conditions: 320 g/ha, 3 weeks after application
Method in brief: as §1

Leptochloa chinensis = test: Test Example 3: herbicidal effect by foliage application, Wagner pot (symbol D); conditions: application herbicide amount 320 g/ha
Method in brief: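 Weeds and rice were sown in alluvial soil under 0.1–0.5 cm of standing water and grown for 14 days in a 25–30 °C greenhouse. An emulsion of the compound, diluted in water to a set dose, was sprayed evenly onto the foliage. Effect was scored against fixed criteria 3 weeks after treatment.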

Veronica persica = test: Test Example 5: herbicidal effect by foliage application, plastic box (symbol R); conditions: 320 g/ha, 3 weeks after application
Method in brief: as §1

Galium spurium = test: Test Example 5: herbicidal effect by foliage application, plastic box (symbol Q); conditions: 320 g/ha, 3 weeks after application
Method in brief: as §1

Apera spica-venti = test: Test Example 5: herbicidal effect by foliage application, plastic box (symbol L); conditions: 320 g/ha, 3 weeks after application
Method in brief: as §1

beet = test: Test Example 4: effect on crop by soil treatment (symbol f); conditions: 320 g/ha
Method in brief: (§2)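 Greenhouse culture at 25° C. to 30° C. followed sowing of seed in spots on sterilized diluvial soil with a soil cover close to 1.5 cm thick.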

rice = test: Test Example 4: effect on crop by soil treatment (symbol b); conditions: 320 g/ha
Method in brief: as §2

[4] = tested on: directly sowed rice plant; test: Test Example 3: effect on crop by foliage application, Wagner pot (symbol b); conditions: application herbicide amount 320 g/ha
Method in brief: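 Wagner pot (1/10000 are), alluvial soil, submerged 0.1–0.5 cm; sown E. crus-galli var. crus-galli, L. chinensis, C. difformis, rice; greenhouse 25–30 °C.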

soybean = test: Test Example 4: effect on crop by soil treatment (symbol d); conditions: 320 g/ha
Method in brief: as §2

| Compound | F: Digitaria ciliaris, herbicidal effect (criteria 0-5) (Digitaria ciliaris) | Herbicidal effect grade, B: Scirpus juncoides (Scirpus juncoides) | J: Alopecurus myosuroides, herbicidal effect grade (Alopecurus myosuroides [1]) | H: Echinochloa crus-galli var. crus-galli, herbicidal effect (criteria 0-5) [2] | g: rapeseed, effect on crop (criteria 0-5) (rapeseed) | O: Chenopodium album, herbicidal effect (criteria 0-5) (Chenopodium album) | J: Alopecurus myosuroides, herbicidal effect (criteria 0-5) (Alopecurus myosuroides [3]) | herbicidal effect on D (Leptochloa chinensis), grade 0-5 (Leptochloa chinensis) | R: Veronica persica, herbicidal effect (criteria 0-5) (Veronica persica) | Q: Galium spurium, herbicidal effect (criteria 0-5) (Galium spurium) | L: Apera spica-venti, herbicidal effect (criteria 0-5) (Apera spica-venti) | f: beet, effect grade on crop (beet) | b: directly sowed rice plant, effect grade on crop (rice) | effect on crop b (directly sowed rice plant), grade 0-5 [4] | d: soybean, effect grade on crop (soybean) | F: Digitaria ciliaris, herbicidal effect grade (Digitaria ciliaris) | H: Echinochloa crus-galli var. crus-galli, herbicidal effect grade [2] | g: rapeseed, effect on crop grade (rapeseed) | O: Chenopodium album, herbicidal effect grade (Chenopodium album) | J: Alopecurus myosuroides, herbicidal effect grade (Alopecurus myosuroides [3]) | other results |
| --- | --- | --- | --- | --- | --- | --- | --- | --- | --- | --- | --- | --- | --- | --- | --- | --- | --- | --- | --- | --- | --- |
| CON=C(C)CC1CC(OC(=O)C(C)(C)c2ccc(Cl)cc2)=C(c2c(C)cc(C)cc2C)C1=O (stereo not drawn) [1-148] | 5 (Herbicidal ratio of 90% or more (almost completely withered)) | 4 (Herbicidal ratio of 70% or higher and lower than 90%) | 5 (Herbicidal ratio of 90% or more (almost completely withered)) | 5 (Herbicidal ratio of 90% or more (almost completely withered)) | 5 (Herbicidal ratio of 90% or more (almost completely withered)) | 1 (Herbicidal ratio of 5% or higher and lower than 20%) | 5 (Herbicidal ratio of 90% or more (almost completely withered)) | 5 (Herbicidal ratio of 90% or more (almost completely withered)) | 3 (Herbicidal ratio of 40% or higher and lower than 70%) | 3 (Herbicidal ratio of 40% or higher and lower than 70%) | 5 (Herbicidal ratio of 90% or more (almost completely withered)) | 0 (Herbicidal ratio of 5% or lower (almost no effect)) | 5 (Herbicidal ratio of 90% or more (almost completely withered)) | 5 (Herbicidal ratio of 90% or more (almost completely withered)) | 0 (Herbicidal ratio of 5% or lower (almost no effect)) | – | – | – | – | – | – |
| CON=C(C)CC1CC(OC(=O)c2ccccc2C(F)(F)F)=C(c2c(C)cc(C)cc2C)C1=O (stereo not drawn) [1-154] | 5 (Herbicidal ratio of 90% or more (almost completely withered)) | 4 (Herbicidal ratio of 70% or higher and lower than 90%) | 5 (Herbicidal ratio of 90% or more (almost completely withered)) | 5 (Herbicidal ratio of 90% or more (almost completely withered)) | 4 (Herbicidal ratio of 70% or higher and lower than 90%) | 1 (Herbicidal ratio of 5% or higher and lower than 20%) | 5 (Herbicidal ratio of 90% or more (almost completely withered)) | 5 (Herbicidal ratio of 90% or more (almost completely withered)) | 3 (Herbicidal ratio of 40% or higher and lower than 70%) | 3 (Herbicidal ratio of 40% or higher and lower than 70%) | 5 (Herbicidal ratio of 90% or more (almost completely withered)) | 0 (Herbicidal ratio of 5% or lower (almost no effect)) | 5 (Herbicidal ratio of 90% or more (almost completely withered)) | 5 (Herbicidal ratio of 90% or more (almost completely withered)) | 0 (Herbicidal ratio of 5% or lower (almost no effect)) | – | – | – | – | – | – |
| CC(=O)C(C(C)=O)C1CC(O)=C(c2c(C)cc(C)cc2C)C1=O (stereo not drawn) [2-002] | – | 0 (Herbicidal ratio of 5% or lower (almost no effect)) | 0 (Herbicidal ratio of 5% or lower (almost no effect)) | – | – | – | – | 0 (Herbicidal ratio of 5% or lower (almost no effect)) | – | – | – | 0 (Herbicidal ratio of 5% or lower (almost no effect)) | 1 (Herbicidal ratio of 5% or higher and lower than 20%) | 0 (Herbicidal ratio of 5% or lower (almost no effect)) | 0 (Herbicidal ratio of 5% or lower (almost no effect)) | 4 (Herbicidal ratio of 70% or higher and lower than 90%) | 3 (Herbicidal ratio of 40% or higher and lower than 70%) | 3 (Herbicidal ratio of 40% or higher and lower than 70%) | 3 (Herbicidal ratio of 40% or higher and lower than 70%) | 4 (Herbicidal ratio of 70% or higher and lower than 90%) | R: Veronica persica, herbicidal effect grade (Veronica persica): 1 (Herbicidal ratio of 5% or higher and lower than 20%); Q: Galium spurium, herbicidal effect grade (Galium spurium): 2 (Herbicidal ratio of 20% or higher and lower than 40%); L: Apera spica-venti, herbicidal effect grade (Apera spica-venti): 2 (Herbicidal ratio of 20% or higher and lower than 40%) |
| CON=C(C)CC1CC(OS(=O)(=O)CC[Si](C)(C)C)=C(c2c(C)cc(C)cc2C)C1=O (stereo not drawn) [1-144] | 5 (Herbicidal ratio of 90% or more (almost completely withered)) | 5 (Herbicidal ratio of 90% or more (almost completely withered)) | 4 (Herbicidal ratio of 70% or higher and lower than 90%) | 5 (Herbicidal ratio of 90% or more (almost completely withered)) | 4 (Herbicidal ratio of 70% or higher and lower than 90%) | 0 (Herbicidal ratio of 5% or lower (almost no effect)) | 5 (Herbicidal ratio of 90% or more (almost completely withered)) | 5 (Herbicidal ratio of 90% or more (almost completely withered)) | 3 (Herbicidal ratio of 40% or higher and lower than 70%) | 2 (Herbicidal ratio of 20% or higher and lower than 40%) | 5 (Herbicidal ratio of 90% or more (almost completely withered)) | 0 (Herbicidal ratio of 5% or lower (almost no effect)) | 5 (Herbicidal ratio of 90% or more (almost completely withered)) | 5 (Herbicidal ratio of 90% or more (almost completely withered)) | 0 (Herbicidal ratio of 5% or lower (almost no effect)) | – | – | – | – | – | – |
| CON=C(C)CC1CC(OC(=O)c2c(Cl)nn(C)c2Cl)=C(c2c(C)cc(C)cc2C)C1=O (stereo not drawn) [1-160] | – | 4 (Herbicidal ratio of 70% or higher and lower than 90%) | 5 (Herbicidal ratio of 90% or more (almost completely withered)) | – | – | – | – | 5 (Herbicidal ratio of 90% or more (almost completely withered)) | – | – | – | 0 (Herbicidal ratio of 5% or lower (almost no effect)) | 5 (Herbicidal ratio of 90% or more (almost completely withered)) | 5 (Herbicidal ratio of 90% or more (almost completely withered)) | 0 (Herbicidal ratio of 5% or lower (almost no effect)) | 5 (Herbicidal ratio of 90% or more (almost completely withered)) | 5 (Herbicidal ratio of 90% or more (almost completely withered)) | 5 (Herbicidal ratio of 90% or more (almost completely withered)) | 2 (Herbicidal ratio of 20% or higher and lower than 40%) | 5 (Herbicidal ratio of 90% or more (almost completely withered)) | R: Veronica persica, herbicidal effect grade (Veronica persica): 3 (Herbicidal ratio of 40% or higher and lower than 70%); Q: Galium spurium, herbicidal effect grade (Galium spurium): 4 (Herbicidal ratio of 70% or higher and lower than 90%); L: Apera spica-venti, herbicidal effect grade (Apera spica-venti): 5 (Herbicidal ratio of 90% or more (almost completely withered)) |
